Twelve molecules from patent publication US12486267B2, “Imidazo[1,2-A]pyridine and [1,2,4]triazolo[1,5-A]pyridine derivatives as TLR9 inhibitors for the treatment of fibrosis” (BRISTOL-MYERS SQUIBB COMPANY, priority 2020, dated 2025) can be followed below.

Assay type in all cases: cell-based
In experiment [1] the target is T1, human TLR7 (Homo sapiens, UniProt Q9NYK1).
T1 sequence (Q9NYK1 27-1049): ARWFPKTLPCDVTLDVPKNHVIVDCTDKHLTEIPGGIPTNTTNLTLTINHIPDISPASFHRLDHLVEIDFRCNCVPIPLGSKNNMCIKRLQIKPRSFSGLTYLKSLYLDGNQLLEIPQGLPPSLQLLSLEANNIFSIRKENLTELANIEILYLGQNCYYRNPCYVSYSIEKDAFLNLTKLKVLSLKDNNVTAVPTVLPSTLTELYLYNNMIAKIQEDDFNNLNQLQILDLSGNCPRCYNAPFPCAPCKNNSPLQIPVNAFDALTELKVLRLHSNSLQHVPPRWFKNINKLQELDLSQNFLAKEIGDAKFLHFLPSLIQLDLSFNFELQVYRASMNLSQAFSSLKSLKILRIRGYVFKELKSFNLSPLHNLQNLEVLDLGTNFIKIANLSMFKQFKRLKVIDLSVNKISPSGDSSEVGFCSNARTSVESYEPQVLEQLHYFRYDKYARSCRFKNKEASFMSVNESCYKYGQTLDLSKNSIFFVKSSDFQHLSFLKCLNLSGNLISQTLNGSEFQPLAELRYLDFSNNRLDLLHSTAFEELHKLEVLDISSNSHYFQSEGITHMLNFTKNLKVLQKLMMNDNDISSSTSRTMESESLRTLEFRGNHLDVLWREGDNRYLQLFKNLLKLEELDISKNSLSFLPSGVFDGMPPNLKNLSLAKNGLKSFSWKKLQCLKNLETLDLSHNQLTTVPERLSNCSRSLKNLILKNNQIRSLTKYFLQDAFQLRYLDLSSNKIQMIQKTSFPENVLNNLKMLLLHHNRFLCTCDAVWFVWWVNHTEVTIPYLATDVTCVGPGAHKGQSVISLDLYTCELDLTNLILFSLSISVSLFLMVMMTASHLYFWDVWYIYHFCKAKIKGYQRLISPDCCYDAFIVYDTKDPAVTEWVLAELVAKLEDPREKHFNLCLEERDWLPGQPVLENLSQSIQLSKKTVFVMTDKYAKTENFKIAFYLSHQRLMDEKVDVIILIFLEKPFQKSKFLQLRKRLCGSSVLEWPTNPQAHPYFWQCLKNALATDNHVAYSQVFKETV
In words: TLR7 inhibition reporter assay (HEK-Blue cells, SEAP reporter). Particulars: HEK-Blue cells overexpressing human TLR7; stimulated with gardiquimod 7.5 μM; 22 hour incubation; SEAP readout. The method in brief: (§1)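 HEK-Blue cells with NF-κB/AP-1-driven SEAP pre-treated 30 min with compound (0.05 nM–50 μM), then stimulated with gardiquimod 7.5 μM (TLR7), R848 15.9 μM (TLR8) or ODN2006 5 nM (TLR9). SEAP detected after 22 h at 37 °C; percent inhibition relative to agonist-plus-DMSO and known-inhibitor wells.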
For orientation: Reporter assays use an easily measured gene product as a stand-in for the process of interest.

In experiment [2] the target is T2, human TLR9 (Homo sapiens, UniProt Q9NR96).
T2 sequence (Q9NR96 26-1032): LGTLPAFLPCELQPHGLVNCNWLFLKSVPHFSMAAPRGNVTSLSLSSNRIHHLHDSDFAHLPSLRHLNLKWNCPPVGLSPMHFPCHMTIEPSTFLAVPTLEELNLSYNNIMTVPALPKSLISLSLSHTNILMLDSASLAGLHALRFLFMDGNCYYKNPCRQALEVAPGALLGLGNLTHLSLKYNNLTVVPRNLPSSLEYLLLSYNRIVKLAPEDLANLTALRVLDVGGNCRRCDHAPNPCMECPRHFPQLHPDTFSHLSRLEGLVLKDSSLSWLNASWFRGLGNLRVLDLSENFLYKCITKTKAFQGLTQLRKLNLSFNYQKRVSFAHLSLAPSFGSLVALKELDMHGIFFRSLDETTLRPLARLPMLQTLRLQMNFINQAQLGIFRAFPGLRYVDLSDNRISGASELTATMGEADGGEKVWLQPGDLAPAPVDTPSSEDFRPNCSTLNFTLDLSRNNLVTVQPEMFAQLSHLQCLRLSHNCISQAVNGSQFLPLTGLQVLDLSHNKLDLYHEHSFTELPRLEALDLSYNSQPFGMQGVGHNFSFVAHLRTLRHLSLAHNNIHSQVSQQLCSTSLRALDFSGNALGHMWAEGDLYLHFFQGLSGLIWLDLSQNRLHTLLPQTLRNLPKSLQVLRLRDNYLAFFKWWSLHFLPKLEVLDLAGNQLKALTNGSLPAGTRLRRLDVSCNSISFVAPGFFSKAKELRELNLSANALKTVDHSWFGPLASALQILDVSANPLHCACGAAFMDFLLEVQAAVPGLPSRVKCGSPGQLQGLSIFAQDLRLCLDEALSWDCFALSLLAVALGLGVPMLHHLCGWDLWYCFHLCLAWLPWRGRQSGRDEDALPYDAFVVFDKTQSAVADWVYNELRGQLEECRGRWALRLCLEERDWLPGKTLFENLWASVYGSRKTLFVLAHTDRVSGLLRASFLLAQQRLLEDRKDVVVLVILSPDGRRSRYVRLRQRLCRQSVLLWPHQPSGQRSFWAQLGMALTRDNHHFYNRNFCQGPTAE
In words: TLR9 inhibition reporter assay (HEK-Blue cells, SEAP reporter). The following applies: HEK-Blue cells overexpressing human TLR9; stimulated with ODN2006 5 nM; 22 hour incubation; SEAP readout. The method in brief: as §1

For experiment [3], the target named is T3, human TLR8 (Homo sapiens, UniProt Q9NR97).
T3 sequence (Q9NR97 27-1041): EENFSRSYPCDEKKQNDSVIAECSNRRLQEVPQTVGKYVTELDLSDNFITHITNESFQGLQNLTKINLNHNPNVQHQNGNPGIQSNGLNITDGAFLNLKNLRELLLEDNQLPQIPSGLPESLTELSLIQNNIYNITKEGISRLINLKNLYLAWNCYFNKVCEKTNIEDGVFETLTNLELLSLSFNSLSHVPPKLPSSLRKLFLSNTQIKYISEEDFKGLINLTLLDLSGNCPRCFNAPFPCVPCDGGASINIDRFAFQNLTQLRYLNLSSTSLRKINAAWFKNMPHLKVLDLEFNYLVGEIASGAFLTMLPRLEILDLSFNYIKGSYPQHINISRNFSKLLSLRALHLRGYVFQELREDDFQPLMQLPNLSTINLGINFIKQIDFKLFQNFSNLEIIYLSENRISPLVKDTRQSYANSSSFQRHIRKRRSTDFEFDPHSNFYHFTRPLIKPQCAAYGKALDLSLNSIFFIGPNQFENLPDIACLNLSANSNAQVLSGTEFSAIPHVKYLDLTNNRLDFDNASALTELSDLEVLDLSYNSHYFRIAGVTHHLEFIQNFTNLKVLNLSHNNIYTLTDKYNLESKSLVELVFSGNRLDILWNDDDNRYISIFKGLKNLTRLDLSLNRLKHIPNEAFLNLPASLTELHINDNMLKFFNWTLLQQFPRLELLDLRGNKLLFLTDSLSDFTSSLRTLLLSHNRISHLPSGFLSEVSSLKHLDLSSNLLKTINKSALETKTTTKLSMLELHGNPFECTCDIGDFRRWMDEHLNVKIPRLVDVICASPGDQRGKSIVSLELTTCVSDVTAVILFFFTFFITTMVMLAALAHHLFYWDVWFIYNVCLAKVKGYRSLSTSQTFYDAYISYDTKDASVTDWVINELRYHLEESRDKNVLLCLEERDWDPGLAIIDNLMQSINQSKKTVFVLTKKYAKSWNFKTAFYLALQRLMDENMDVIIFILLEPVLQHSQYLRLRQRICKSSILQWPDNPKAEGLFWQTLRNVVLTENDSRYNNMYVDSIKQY
The experiment can be described thus: TLR8 inhibition reporter assay (HEK-Blue cells, SEAP reporter). The following applies: HEK-Blue cells overexpressing human TLR8; stimulated with R848 15.9 μM; 22 hour incubation; SEAP readout. The method in brief: as §1

By IC50 is commonly meant the point on the concentration scale where inhibition reaches its midpoint. Low values mean higher potency, high ones lower potency. With `COc1ccc(-c2cn3cc(-c4ccc(N5CCN(C6CCOCC6)CC5)cc4)cc(C)c3n2)cc1OC` [Example 97, 2-(3,4-dimethoxyphenyl)-8-methyl-6-(4-(4-(tetrahydro-2H-pyran-4-yl)piperazin-1-yl)phenyl) imidazo[1,2-a]pyridine], the figures for the IC50 in experiment [1], in experiment [2] and in experiment [3] were greater than 50 µM, 2100 nM and greater than 25 µM, respectively.
The like results for `COc1ccc(-c2cn3cc(C4CCN(C5CCN(C(C)C)CC5)CC4)ccc3n2)cc1OC` [Example 11, 2-(3,4-dimethoxyphenyl)-6-(1′-isopropyl-[1,4′-bipiperidin]-4-yl)imidazo[1,2-a]pyridine] were, in that order, 5.6 µM, 77 nM and greater than 50 µM.
The like results for `CC(C)CN1C2CCC1CC(N1CCC(c3cc(F)c4nc(-c5ccc(S(C)(=O)=O)cc5)cn4c3)CC1)C2` (single isomer, unassigned) [Example 113, 8-fluoro-6-(1-(8-isobutyl-8-azabicyclo[3.2.1]octan-3-yl)piperidin-4-yl)-2-(4-(methylsulfonyl)phenyl)imidazo[1,2-a]pyridine] were, in that order, 0.6 µM, 31 nM and greater than 50 µM.
The like results for `COc1ccc(-c2cn3c(n2)CCC(C2CCN(C4CC5(C4)CN(CC(C)C)C5)CC2)C3)cc1OC` (single isomer, unassigned) [Example 54, 2-(3,4-dimethoxyphenyl)-6-(1-(2-isobutyl-2-azaspiro[3.3]heptan-6-yl)piperidin-4-yl)-5,6,7,8-tetrahydroimidazo[1,2-a]pyridine] were, in that order, 0.83 µM, 1.5 nM and greater than 50 µM.
`CC(C)CN1C2CCC1CC(N1CCC([C@@H]3CCc4nc(-c5ccc(S(C)(=O)=O)cc5)cn4C3)CC1)C2` (single isomer, unassigned) [Example 82]: the IC50 in experiment [1] was 9.2 µM; in experiment [2], 21 nM; in experiment [3], greater than 50 µM.
In the case of `COc1ccc(-c2cn3cc(C4CCN(C5CCN(CC(C)C)CC5)CC4)cc(C)c3n2)cc1F` [Example 6, 2-(3-fluoro-4-methoxyphenyl)-6-(1′-isobutyl-[1,4′-bipiperidin]-4-yl)-8-methylimidazo[1,2-a]pyridine], the figures for the 50% inhibitory concentration (IC50) in experiment [1], in experiment [2] and in experiment [3] were 16 µM, 252 nM and greater than 50 µM, respectively.
As to `Cc1cc(C2CCN(C3CCN(CC(C)C)CC3)CC2)cn2cc(-c3ccc(S(C)(=O)=O)cc3)nc12` [Example 9, 6-(1′-isobutyl-[1,4′-bipiperidin]-4-yl)-8-methyl-2-(4-(methylsulfonyl)phenyl) imidazo[1,2-a]pyridine], the half-maximal inhibitory concentration (IC50) in experiment [1] was 3.3 µM; in experiment [2] it was 42 nM; in experiment [3] it was greater than 50 µM.
For `CC(C)CN1CCC(N2CCC(c3cc(F)c4nc(-c5ccc(S(C)(=O)=O)cc5)cn4c3)CC2)CC1` [Example 107, 8-fluoro-6-(1′-isobutyl-[1,4′-bipiperidin]-4-yl)-2-(4-(methylsulfonyl)phenyl) imidazo[1,2-a]pyridine] the same measures were 11 µM, 100 nM and greater than 50 µM.
`Cc1cc(C2CCN(C3CC4CCC(C3)N4C(C)C)CC2)cn2cc(-c3ccc(S(C)(=O)=O)cc3)nc12` (single isomer, unassigned) [Example 63, 6-(1-(8-isopropyl-8-azabicyclo[3.2.1]octan-3-yl)piperidin-4-yl)-8-methyl-2-(4-(methylsulfonyl)phenyl)imidazo[1,2-a]pyridine]: the IC50 in experiment [1] came to 5.8 µM; in experiment [2], 97 nM; in experiment [3], 9.5 µM.
For `CS(=O)(=O)c1ccc(-c2cn3cc(C4CCN(C5CCCN(C6CCOCC6)CC5)CC4)cc(F)c3n2)cc1` (single isomer, unassigned) [Example 130, 8-fluoro-2-(4-(methylsulfonyl)phenyl)-6-(1-(1-(tetrahydro-2H-pyran-4-yl)azepan-4-yl)piperidin-4-yl)imidazo[1,2-a]pyridine] the same measures were greater than 50 µM, 10 nM and 22.5 µM.
Regarding `COc1ccc(-c2cn3c(n2)CCC(C2CCN(C4CCN(CC(C)C)CC4)CC2)C3)cc1OC` (single isomer, unassigned) [Example 33, 2-(3,4-dimethoxyphenyl)-6-(1′-isobutyl-[1,4′-bipiperidin]-4-yl)-5,6,7,8-tetrahydroimidazo[1,2-a]pyridine], the results for the IC50 in experiment [1], in experiment [2] and in experiment [3] were 3.1 µM, 56 nM and greater than 50 µM, respectively.
In the case of `Cc1cc(-c2ccc(N3CCN(C4CCOCC4)CC3)cc2)cn2cc(-c3ccc(S(C)(=O)=O)cc3)nc12` [Example 104, 8-methyl-2-(4-(methylsulfonyl)phenyl)-6-(4-(4-(tetrahydro-2H-pyran-4-yl)piperazin-1-yl)phenyl)imidazo[1,2-a]pyridine], the IC50 is 5.1 µM in experiment [1], 451 nM in experiment [2] and greater than 50 µM in experiment [3].
